Measurements taken from patent publication US20250361234A1 (NICO THERAPEUTICS, INC., priority 2022, published 2025).

Biological target: T1, full-length SARM1 (FL-SARM1) (Homo sapiens, UniProt Q6SZW1)
T1 sequence (Q6SZW1 28-724): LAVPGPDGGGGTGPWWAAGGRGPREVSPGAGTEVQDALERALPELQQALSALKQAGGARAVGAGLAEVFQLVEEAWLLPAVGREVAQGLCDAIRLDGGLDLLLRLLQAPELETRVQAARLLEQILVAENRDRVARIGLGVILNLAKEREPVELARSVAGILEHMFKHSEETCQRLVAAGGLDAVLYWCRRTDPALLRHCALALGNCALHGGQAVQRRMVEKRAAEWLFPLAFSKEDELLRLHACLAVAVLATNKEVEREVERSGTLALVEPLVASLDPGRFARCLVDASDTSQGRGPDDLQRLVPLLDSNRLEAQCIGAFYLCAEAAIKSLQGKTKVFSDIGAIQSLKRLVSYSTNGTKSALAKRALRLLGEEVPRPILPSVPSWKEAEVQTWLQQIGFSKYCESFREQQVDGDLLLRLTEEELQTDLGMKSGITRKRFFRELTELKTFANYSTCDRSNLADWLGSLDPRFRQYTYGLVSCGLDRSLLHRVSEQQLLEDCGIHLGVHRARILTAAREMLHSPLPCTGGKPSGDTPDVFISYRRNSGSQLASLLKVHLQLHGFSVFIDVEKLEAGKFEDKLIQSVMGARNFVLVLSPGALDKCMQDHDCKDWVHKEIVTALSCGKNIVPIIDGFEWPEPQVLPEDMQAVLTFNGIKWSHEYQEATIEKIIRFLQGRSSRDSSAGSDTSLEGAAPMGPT
Test: FL-SARM1 cellular lysate assay (NAD/NADH-Glo readout of remaining NAD+)
Settings: SARM1 cellular lysate from transfected HEK293T cells, NAD+ and NMN, 11 point curve

## Cc1ccc(NC(=O)[C@@H]2CC2(F)F)cc1-c1cncc(F)c1 [Example 110, (S)-2,2-difluoro-N-(3-(5-fluoropyridin-3-yl)-4-methylphenyl)cyclopropanecarboxamide]
Activity (μM)
  IC50: 8.2 µM
Activity
  IC50: 1 to 10 µM

## C[C@@H]1CC2C[C@H](C1)N2C(=O)Nc1ccc(C(F)F)c(-c2cncc(F)c2)c1 [Example 42, cis-N-(4-(difluoromethyl)-3-(5-fluoropyridin-3-yl)phenyl)-3-methyl-6-azabicyclo[3.1.1]heptane-6-carboxamide]
Activity (μM)
  IC50: 0.06 µM
Activity
  IC50: 0.0001 to 1 µM

## Cc1ccc(NC(=O)N2C3C[C@H]2C[C@]2(C3)CC2(F)F)cc1-c1cncc(F)c1 (stereo in doubt) [Example 10, trans-2′,2′-difluoro-N-(3-(5-fluoropyridin-3-yl)-4-methylphenyl)-6-azaspiro[bicyclo[3.1.1]heptane-3,1′-cyclopropane]-6-carboxamide]
Activity (μM)
  IC50: 0.3 µM
Activity
  IC50: 0.0001 to 1 µM

## Cc1nnc([C@]23C[C@H](C)C[C@H](C2)N3C(=O)Nc2ccc(C(F)(F)F)c(-c3cncc(F)c3)c2)o1 (single isomer, unassigned) [Example 120, cis-N-(3-(5-fluoropyridin-3-yl)-4-(trifluoromethyl)phenyl)-3-methyl-1-(5-methyl-1,3,4-oxadiazol-2-yl)-6-azabicyclo[3.1.1]heptane-6-carboxamide]
Activity (μM)
  IC50: > 50 µM
Activity
  IC50: > 10 µM

## Cc1ccc(NC(=O)N2C3CCCC2C3)cc1-c1cnccc1C#N [Example 62, N-(3-(4-cyanopyridin-3-yl)-4-methylphenyl)-6-azabicyclo[3.1.1]heptane-6-carboxamide]
Activity (μM)
  IC50: 1.1 µM
Activity
  IC50: 1 to 10 µM

## Cc1nnc([C@]23C[C@H](C)C[C@H](C2)N3C(=O)Nc2cc(-c3cncc(F)c3)c(Cl)cc2F)o1 (single isomer, unassigned) [Example 132, cis-N-(4-chloro-2-fluoro-5-(5-fluoropyridin-3-yl)phenyl)-3-methyl-1-(5-methyl-1,3,4-oxadiazol-2-yl)-6-azabicyclo[3.1.1]heptane-6-carboxamide]
Activity (μM)
  IC50: 0.05 µM
Activity
  IC50: 0.0001 to 1 µM

## Cc1ccc(NC(=O)[C@H]2C[C@@H](C3CC3)C2)cc1-c1cncc(F)c1 [Example 109, cis-3-cyclopropyl-N-[3-(5-fluoropyridin-3-yl)-4-methylphenyl]cyclobutane-1-carboxamide]
Activity (μM)
  IC50: 0.5 µM
Activity
  IC50: 0.0001 to 1 µM

## Cc1ccc(NC(=O)[C@@H]2CC2(F)F)cc1-c1cccnc1C [Example 112, (1S)-2,2-difluoro-N-[4-methyl-3-(2-methylpyridin-3-yl)phenyl]cyclopropane-1-carboxamide]
Activity (μM)
  IC50: 33.3 µM
Activity
  IC50: > 10 µM

## Cc1ccc(NC(=O)N2C3CCCC2C3)cc1-c1cnnnc1 [Example 130]
Activity (μM)
  IC50: 15.5 µM
Activity
  IC50: > 10 µM

## Cc1cc(F)c(NC(=O)N2C3C[C@H](C)C[C@@H]2C3)cc1-c1cncc(F)c1 [Example 41, cis-N-(2-fluoro-5-(5-fluoropyridin-3-yl)-4-methylphenyl)-3-methyl-6-azabicyclo[3.1.1]heptane-6-carboxamide]
Activity (μM)
  IC50: 0.04 µM
Activity
  IC50: 0.0001 to 1 µM

## Cc1ccc(NC(=O)N2C3C[C@@H]2C[C@H](n2cccn2)C3)cc1-c1cncc(F)c1 [Example 27, cis-N-(3-(5-fluoropyridin-3-yl)-4-methylphenyl)-3-(1H-pyrazol-1-yl)-6-azabicyclo[3.1.1]heptane-6-carboxamide]
Activity (μM)
  IC50: 14.1 µM
Activity
  IC50: > 10 µM

## Cc1ccc(NC(=O)N2C3C[C@H](OC(F)F)C[C@H]2C3)cc1-c1cncc(F)c1 [Example 56, trans-3-(difluoromethoxy)-N-(3-(5-fluoropyridin-3-yl)-4-methylphenyl)-6-azabicyclo[3.1.1]heptane-6-carboxamide]
Activity (μM)
  IC50: 0.09 µM
Activity
  IC50: 0.0001 to 1 µM

## Cc1ccc(NC(=O)N2CC[C@@H](C)C[C@H]2C)cc1-c1cncc(F)c1 (racemic) [Example 119, cis-N-(3-(5-fluoropyridin-3-yl)-4-methylphenyl)-2,4-dimethylpiperidine-1-carboxamide]
Activity (μM)
  IC50: 1.1 µM
Activity
  IC50: 1 to 10 µM

## Cc1ccc(NC(=O)N2C3C[C@@H](C(F)F)C[C@@H]2C3)cc1-c1cncc(F)c1 [Example 4, trans-3-(difluoromethyl)-N-(3-(5-fluoropyridin-3-yl)-4-methylphenyl)-6-azabicyclo[3.1.1]heptane-6-carboxamide]
Activity (μM)
  IC50: 0.1 µM
Activity
  IC50: 0.0001 to 1 µM

## Cc1ccc(NC(=O)N2C3CC2CC(C)(O)C3)cc1-c1cncc(F)c1 (single isomer, unassigned) [Example 46, N-(3-(5-fluoropyridin-3-yl)-4-methylphenyl)-3-hydroxy-3-methyl-6-azabicyclo[3.1.1]heptane-6-carboxamide]
Activity (μM)
  IC50: 8.7 µM
Activity
  IC50: 1 to 10 µM

## Cc1ccc(NC(=O)C2CCCN2C(=O)OC(C)(C)C)cc1-c1cncc(F)c1 (racemic) [Example 105, tert-butyl 2-[[3-(5-fluoropyridin-3-yl)-4-methylphenyl]carbamoyl]pyrrolidine-1-carboxylate]
Activity (μM)
  IC50: 13.5 µM
Activity
  IC50: > 10 µM

## Cc1nnc([C@]23C[C@H](C)C[C@H](C2)N3C(=O)Nc2ccc(C)c(-c3cncc(F)c3)c2)o1 (single isomer, unassigned) [Example 127, cis-N-(3-(5-fluoropyridin-3-yl)-4-methylphenyl)-3-methyl-1-(5-methyl-1,3,4-oxadiazol-2-yl)-6-azabicyclo[3.1.1]heptane-6-carboxamide]
Activity (μM)
  IC50: 0.01 µM
Activity
  IC50: 0.0001 to 1 µM

## O=C(Nc1ccc(C2CC2)c(-c2cncc(F)c2)c1)N1C2CCCC1C2 [Example 66, N-(4-cyclopropyl-3-(5-fluoropyridin-3-yl)phenyl)-6-azabicyclo[3.1.1]heptane-6-carboxamide]
Activity (μM)
  IC50: 2 µM
Activity
  IC50: 1 to 10 µM

## Cc1cncc(-c2cc(NC(=O)N3C4CCCC3C4)ccc2C)c1 [Example 115, N-[4-methyl-3-(5-methylpyridin-3-yl)phenyl]-6-azabicyclo[3.1.1]heptane-6-carboxamide]
Activity (μM)
  IC50: 0.1 µM
Activity
  IC50: 0.0001 to 1 µM

## COc1cncc(-c2cc(NC(=O)N3[C@@H]4C[C@@H](C)C[C@@]3(c3nnc(C)o3)C4)c(F)cc2C(F)(F)F)c1 (single isomer, unassigned) [Example 123, cis-N-(2-fluoro-5-(5-methoxypyridin-3-yl)-4-(trifluoromethyl)phenyl)-3-methyl-1-(5-methyl-1,3,4-oxadiazol-2-yl)-6-azabicyclo[3.1.1]heptane-6-carboxamide]
Activity (μM)
  IC50: 0.006 µM
Activity
  IC50: 0.0001 to 1 µM

## Cc1ccc(NC(=O)N2C[C@@H]3C[C@H]2C[C@@H]3C#N)cc1-c1cncc(F)c1 (relative stereo) [Example 24, trans-5-cyano-N-(3-(5-fluoropyridin-3-yl)-4-methylphenyl)-2-azabicyclo[2.2.1]heptane-2-carboxamide]
Activity (μM)
  IC50: 3.3 µM
Activity
  IC50: 1 to 10 µM

## COc1c(F)cncc1-c1cc(NC(=O)N2C3CCCC2C3)ccc1C [Example 90, N-(3-(5-fluoro-4-methoxypyridin-3-yl)-4-methylphenyl)-6-azabicyclo[3.1.1]heptane-6-carboxamide]
Activity (μM)
  IC50: 1.9 µM
Activity
  IC50: 1 to 10 µM

## O=C(Nc1cccc(-c2cncc(F)c2)c1)N1C2CCCC1C2 [Example 73, N-[3-(5-fluoropyridin-3-yl)phenyl]-6-azabicyclo[3.1.1]heptane-6-carboxamide]
Activity (μM)
  IC50: 1.2 µM
Activity
  IC50: 1 to 10 µM

## Cc1ncc(-c2cc(NC(=O)[C@@H]3CC3(F)F)ccc2C)cn1 [Example 111, (1S)-2,2-difluoro-N-[4-methyl-3-(2-methylpyrimidin-5-yl)phenyl]cyclopropane-1-carboxamide]
Activity (μM)
  IC50: 20.4 µM
Activity
  IC50: > 10 µM

## C[C@@H]1CC2C[C@@H](C1)N2C(=O)Nc1ccc(C#N)c(-c2cncc(F)c2)c1 (single isomer, unassigned) [Example 77, trans-N-(4-cyano-3-(5-fluoropyridin-3-yl)phenyl)-3-methyl-6-azabicyclo[3.1.1]heptane-6-carboxamide]
Activity (μM)
  IC50: 0.4 µM
Activity
  IC50: 0.0001 to 1 µM

## Cc1ccc(NC(=O)CC2CCC2)cc1-c1cncnc1 [Example 118, 2-cyclobutyl-N-(4-methyl-3-pyrimidin-5-ylphenyl)acetamide]
Activity (μM)
  IC50: 13.9 µM
Activity
  IC50: > 10 µM

## Cc1nnc([C@]23C[C@H](C)C[C@H](C2)N3C(=O)Nc2ccc(C)c(-c3cncc(F)c3)c2)o1 (single isomer, unassigned) [Example 128, cis-N-(3-(5-fluoropyridin-3-yl)-4-methylphenyl)-3-methyl-1-(5-methyl-1,3,4-oxadiazol-2-yl)-6-azabicyclo[3.1.1]heptane-6-carboxamide]
Activity (μM)
  IC50: 11.6 µM
Activity
  IC50: > 10 µM

## C[C@@H]1CC2C[C@H](C1)N2C(=O)Nc1ccc(F)c(-c2cncc(F)c2)c1 (single isomer, unassigned) [Example 58, cis-N-(4-fluoro-3-(5-fluoropyridin-3-yl)phenyl)-3-methyl-6-azabicyclo[3.1.1]heptane-6-carboxamide]
Activity (μM)
  IC50: 0.3 µM
Activity
  IC50: 0.0001 to 1 µM
